Data reported in ChEMBL document CHEMBL1201862, “PubChem BioAssay data set” (2004).
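Method: 48-hour compound exposure of cells in 96-well plates, five concentrations, linear interpolation of endpoints. GI50 is the concentration that inhibits growth by half.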 Active and inactive are the calls of the source. No stated cut-off is given here; in the data, active = GI50 up to about 1.1 µM and inactive = higher.

Columns and labels:
Test in all cases: inhibition of tumour cell growth, NCI panel, 48 h
CAKI-1 = tested on: CAKI-1
CCRF-CEM = tested on: CCRF-CEM
COLO 205 = tested on: COLO 205
HOP-62 = tested on: HOP-62
HT-29 = tested on: HT-29
Hs-578T = tested on: Hs-578T
K562 = tested on: K562
NCI-H23 = tested on: NCI-H23
OVCAR-4 = tested on: OVCAR-4
RPMI-8226 = tested on: RPMI-8226
SF-295 = tested on: SF-295
SF-539 = tested on: SF-539
SK-MEL-5 = tested on: SK-MEL-5
SK-OV-3 = tested on: SK-OV-3
SN12C = tested on: SN12C
LOX IMVI = tested on: LOX IMVI
TK-10 = tested on: TK-10
A498 = tested on: A498

| SMILES | GI50 (CAKI-1) | GI50 (CCRF-CEM) | GI50 (COLO 205) | GI50 (HOP-62) | GI50 (HT-29) | GI50 (Hs-578T) | GI50 (K562) | GI50 (NCI-H23) | GI50 (OVCAR-4) | GI50 (RPMI-8226) | GI50 (SF-295) | GI50 (SF-539) | GI50 (SK-MEL-5) | GI50 (SK-OV-3) | GI50 (SN12C) | GI50 (LOX IMVI) | GI50 (TK-10) | GI50 (A498) |
| --- | --- | --- | --- | --- | --- | --- | --- | --- | --- | --- | --- | --- | --- | --- | --- | --- | --- | --- |
| c1ccc(/C(=N/Nc2ccncn2)c2ccccn2)cc1 | 15.5 µM (inactive) | 1.65 µM (inactive) | 1.03 µM (active) | 31.7 µM (inactive) | 0.883 µM (active) | 0.0114 µM (active) | 0.528 µM (active) | 17.6 µM (inactive) | 49.1 µM (inactive) | 9.75 µM (inactive) | 23.1 µM (inactive) | 32.2 µM (inactive) | 15.4 µM (inactive) | 23.7 µM (inactive) | 35 µM (inactive) | – | – | – |
| O=c1oc2ccc([N+](=O)[O-])cc2c(Nc2ccc3c(c2)Sc2ccccc2O3)c1[N+](=O)[O-] | 22.3 µM (inactive) | 18.9 µM (inactive) | 19.3 µM (inactive) | 21.3 µM (inactive) | 27.2 µM (inactive) | 37 µM (inactive) | 24.2 µM (inactive) | 18.6 µM (inactive) | 32.3 µM (inactive) | 9.2 µM (inactive) | 38.2 µM (inactive) | 19.8 µM (inactive) | 20.3 µM (inactive) | 24 µM (inactive) | 20 µM (inactive) | 20 µM (inactive) | 27.4 µM (inactive) | – |
| COc1ccc(C[n+]2cccc(O)c2)cc1 | – | > 100 µM (inactive) | – | > 100 µM (inactive) | > 100 µM (inactive) | > 100 µM (inactive) | > 100 µM (inactive) | > 100 µM (inactive) | – | – | > 100 µM (inactive) | > 100 µM (inactive) | > 100 µM (inactive) | > 100 µM (inactive) | > 100 µM (inactive) | – | > 100 µM (inactive) | > 100 µM (inactive) |
| CCOP(=O)(OCC)c1cc(-c2ccccc2)ccc1N | > 100 µM (inactive) | > 100 µM (inactive) | > 100 µM (inactive) | 37.2 µM (inactive) | > 100 µM (inactive) | 52 µM (inactive) | > 100 µM (inactive) | > 100 µM (inactive) | 89.1 µM (inactive) | > 100 µM (inactive) | 92.3 µM (inactive) | – | > 100 µM (inactive) | > 100 µM (inactive) | – | – | > 100 µM (inactive) | > 100 µM (inactive) |
| COc1ccc(C(CC(=O)C(C)(C)CN2CCCCC2)SCCS(=O)(=O)O)cc1 (stereo unspecified) | 34.9 µM (inactive) | 17.1 µM (inactive) | 28.4 µM (inactive) | 77.8 µM (inactive) | 26.2 µM (inactive) | 55.3 µM (inactive) | 22.9 µM (inactive) | 25.1 µM (inactive) | 34 µM (inactive) | 24.9 µM (inactive) | 13.9 µM (inactive) | 19.9 µM (inactive) | 20.9 µM (inactive) | 60.7 µM (inactive) | 54.2 µM (inactive) | – | 45.7 µM (inactive) | 26.2 µM (inactive) |
| CC1OC(OC2C(OC(=O)[C@@H]3CC(C)(C)C[C@@H]4C5=CC[C@@H]6[C@@]7(C)C[C@H](O)[C@H](OC8OC(CO)C(O)C(O)C8O)[C@@](C)(CO)C7[C@H](O)C[C@@]6(C)[C@]5(C)C[C@@H](O)[C@H]43)OCC(O)C2O)C(O)C(O)C1O (stereo partly specified) | > 15 µM (inactive) | > 15 µM (inactive) | 6.28 µM (inactive) | > 15 µM (inactive) | 11.5 µM (inactive) | > 15 µM (inactive) | > 15 µM (inactive) | 7.05 µM (inactive) | 12.9 µM (inactive) | – | > 15 µM (inactive) | > 15 µM (inactive) | > 15 µM (inactive) | > 15 µM (inactive) | 5.57 µM (inactive) | > 15 µM (inactive) | > 15 µM (inactive) | – |
| CCOC(=O)C1=COC(C)(CCc2ccccc2)CC1=O (stereo unspecified) | > 100 µM (inactive) | – | > 100 µM (inactive) | > 100 µM (inactive) | 56.2 µM (inactive) | 45 µM (inactive) | 40.3 µM (inactive) | 95.5 µM (inactive) | > 100 µM (inactive) | 41.9 µM (inactive) | > 100 µM (inactive) | 66.5 µM (inactive) | 94 µM (inactive) | > 100 µM (inactive) | > 100 µM (inactive) | – | > 100 µM (inactive) | > 100 µM (inactive) |
| Cc1ccc(/C=N/Nc2cc(C)c3ccccc3n2)s1 | 11.4 µM (inactive) | 13.1 µM (inactive) | 4.71 µM (inactive) | 15.7 µM (inactive) | 3.85 µM (inactive) | 31.5 µM (inactive) | 7 µM (inactive) | 17.5 µM (inactive) | 20 µM (inactive) | 3.91 µM (inactive) | 15.1 µM (inactive) | 21.3 µM (inactive) | 8.3 µM (inactive) | 19.3 µM (inactive) | 13.1 µM (inactive) | 10.3 µM (inactive) | 30.8 µM (inactive) | – |
